According to patent US9518060B2, “Substituted pyrrolo[3,4-c]pyrazoles as PKC kinase inhibitors” (PFIZER INC., priority 2007, dated 2016):
Counter-ions that a name gives are not always drawn.

Molecular target: Protein Kinase C beta 2 (PKCβII) (Homo sapiens (Human), UniProt P05771)
Assay: PKCβII coupled spectrophotometric kinase assay (PK/LDH, NADH absorbance at 340 nm)
Assay type: biochemical
Conditions: apparent Ki, ATP competitive inhibition model (Morrison equation); 0.1 mM ATP, 5 nM PKC, 30° C.; read-out: Ki app
Procedure: Protein Kinase C beta 2 (PKCβII) catalyzes the production of ADP from ATP that accompanies the phosphoryl transfer to the PKC Pseudosubstrate peptide (A→S, RFARKGSLRQKNV). This transfer is coupled to the oxidation of β-NADH through the activities of Pyruvate Kinase (PK) and Lactate Dehydrogenase (LDH). β-NADH conversion to NAD+ is monitored by the decrease in absorbance at 340 nm (e=6.22 cm^−1 mM^−1) using a Molecular Devices SPECTRA max PLUS spectrophotometer.
A typical assay was carried out on a 96-well, clear microtiter plate in a Molecular Devices spectrophotometer for 20 minutes at 30° C. in 0.1 mL of assay buffer containing 50 mM HEPES, pH 7.4, 5 nM PKC, 23 units of pyruvate kinase, 33 units of lactate dehydrogenase, 0.15 mM peptide, 0.1 mM ATP, 1 mM DTT, 4 mM PEP, 8 mM MgCl2, 0.3 mM NADH, 60 mM CaCl2, 10 mg/mL PS, 50 ng/mL PMA, 7.5% DMSO and from about 10,000 nM to 0.169 nM compound inhibitor. Stock solutions of 3-sn-phosphatidyl-L-serine (PS) and phorbol-12-myristate-13-acetate (PMA) were sonicated for 30 seconds just prior to addition to assay buffer and assays were initiated by the addition of 100 μM ATP.
Steady-state kinetic parameters for the bi-bi kinase reaction were determined at saturating phospho-acceptor peptide substrate concentration (0.15 mM) by fitting initial velocity data to the Michaelis-Menten equation, v=Vmax[S]/(KM+[S]) where v is the measured initial velocity, Vmax is the maximal enzyme velocity, [S] is the ATP substrate concentration, and KM is the Michealis constant for ATP. Enzyme turnover values (kcat) were calculated according to […], where [E] is the total enzyme concentration. Enzyme inhibition constants (apparent Ki values) were determined by fitting initial velocities at variable inhibitor concentrations to a model for ATP competitive inhibition based on the Morrison equation). Morrison, J. F., Biochim. Biophys Acta 185: 269-286 (1969).

Sequence of Protein Kinase C beta 2 (PKCβII) (P05771 other isoform, or with tags, fused parts or gaps): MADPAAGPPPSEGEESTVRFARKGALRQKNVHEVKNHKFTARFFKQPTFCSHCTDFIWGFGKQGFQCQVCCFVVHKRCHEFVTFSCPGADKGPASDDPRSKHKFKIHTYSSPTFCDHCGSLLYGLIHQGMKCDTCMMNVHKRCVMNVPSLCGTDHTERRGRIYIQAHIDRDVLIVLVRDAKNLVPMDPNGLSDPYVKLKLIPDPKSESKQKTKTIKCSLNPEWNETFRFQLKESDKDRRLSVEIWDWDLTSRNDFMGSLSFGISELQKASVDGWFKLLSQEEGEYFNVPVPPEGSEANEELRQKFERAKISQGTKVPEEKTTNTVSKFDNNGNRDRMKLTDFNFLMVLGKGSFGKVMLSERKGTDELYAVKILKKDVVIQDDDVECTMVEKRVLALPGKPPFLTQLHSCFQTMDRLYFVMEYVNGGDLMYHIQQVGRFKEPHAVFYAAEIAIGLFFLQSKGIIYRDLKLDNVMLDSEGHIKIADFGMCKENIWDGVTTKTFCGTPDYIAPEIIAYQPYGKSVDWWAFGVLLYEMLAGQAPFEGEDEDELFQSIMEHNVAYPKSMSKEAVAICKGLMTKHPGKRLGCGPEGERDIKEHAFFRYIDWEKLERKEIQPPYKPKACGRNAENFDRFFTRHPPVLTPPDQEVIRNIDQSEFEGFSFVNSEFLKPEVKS

Going from Cc1ncc(F)c(Nc2n[nH]c3c2CN(C(=O)N2CC(CCO)N(C)C[C@@H]2C)C3(C)C)n1 (single isomer, unassigned) [Example H9] to COc1ncc(F)c(Nc2n[nH]c3c2CN(C(=O)N2CC(CCO)N(C)C[C@@H]2C)C3(C)C)n1 (single isomer, unassigned) [Example K25], the Ki falls from 58.2 nM to 36.5 nM (1.6-fold). The second binds more tightly here.

Compared with Cc1ncc(F)c(Nc2n[nH]c3c2CN(C(=O)N2CC(CCO)N(C)C[C@@H]2C)C3(C)C)n1 (single isomer, unassigned) [Example H10], COc1ncc(F)c(Nc2n[nH]c3c2CN(C(=O)N2CC(CCO)N(C)C[C@@H]2C)C3(C)C)n1 (single isomer, unassigned) [Example K26] is 3.3-fold lower in Ki: 180 nM for the first, 54.7 nM for the second. The second binds more tightly here.

Going from COCc1ncc(F)c(Nc2n[nH]c3c2CN(C(=O)N2CC(CCO)N(C)C[C@@H]2C)C3(C)C)n1 (single isomer, unassigned) [Example N2] to Cc1ncc(F)c(Nc2n[nH]c3c2CN(C(=O)N2C[C@@H](C)N(CCCO)C[C@@H]2C)C3(C)C)n1 (stereo in doubt) [AA5, [3-(5-fluoro-2-methyl-pyrimidin-4-ylamino)-6,6-dimethyl-4,6-dihydro-1H-pyrrolo[3,4-c]pyrazol-5-yl]-[4-(3-hydroxy-propyl)-2,5-dimethyl-piperazin-1-yl]-methanone], the Ki rises from less than 10 nM to 29.1 nM. The first binds more tightly here.

CCN1C[C@H](C)N(C(=O)N2Cc3c(Nc4nc(C)ncc4F)n[nH]c3C2(C)C)C[C@H]1C [AA2, 5-{[(2S,5R)-4-ethyl-2,5-dimethylpiperazin-1-yl]carbonyl}-N-(5-fluoro-2-methylpyrimidin-4-yl)-6,6-dimethyl-1,4,5,6-tetrahydropyrrolo[3,4-c]pyrazol-3-amine] and CCN1C[C@H](C)N(C(=O)N2Cc3c(Nc4nc(OC)ncc4F)n[nH]c3C2(C)C)C[C@H]1C [Example AA1, 5-{[(2S,5R)-4-ethyl-2,5-dimethylpiperazin-1-yl]carbonyl}-N-(5-fluoro-2-methoxypyrimidin-4-yl)-6,6-dimethyl-1,4,5,6-tetrahydropyrrolo[3,4-c]pyrazol-3-amine] are within 1.5-fold of each other in Ki: 18.9 nM for the first, 22.9 nM for the second.

First: CCN1C[C@H](C)N(C(=O)N2Cc3c(Nc4nc(C)nc(C)c4F)n[nH]c3C2(C)C)C[C@H]1C [AA3, 5-{[(2S,5R)-4-ethyl-2,5-dimethylpiperazin-1-yl]carbonyl}-N-(5-fluoro-2,6-dimethylpyrimidin-4-yl)-6,6-dimethyl-1,4,5,6-tetrahydropyrrolo[3,4-c]pyrazol-3-amine]
Second: Cc1ncc(F)c(Nc2n[nH]c3c2CN(C(=O)N2C[C@H](C)N(C)C[C@@H]2C)C3(C)C)n1 [AA4, 2(S),5(S)-{[dimethyl-4-methylpiperazin-1-yl]carbonyl}-N-(5-fluoro-2-methylpyrimidin-4-yl)-6,6-dimethyl-1,4,5,6-tetrahydropyrrolo[3,4-c]pyrazol-3-amine]
The Ki of the first is 9.9-fold lower: 14.8 nM for the first, 147 nM for the second.

C[C@H]1CN(C)C(C)(C)CN1C(=O)N1Cc2c(Nc3nc(N(C)C)ncc3F)n[nH]c2C1(C)C [Example A2, N^4-(6,6-dimethyl-5-{[(2S)-2,4,5,5-tetramethylpiperazin-1-yl]carbonyl}-1,4,5,6-tetrahydropyrrolo[3,4-c]pyrazol-3-yl)-5-fluoro-N^2,N^2-dimethylpyrimidine-2,4-diamine] and CNc1ncc(F)c(Nc2n[nH]c3c2CN(C(=O)N2CC(C)(C)N(C)C[C@@H]2C)C3(C)C)n1 [Example A6, N^4-(6,6-dimethyl-5-{[(2S)-2,4,5,5-tetramethylpiperazin-1-yl]carbonyl}-1,4,5,6-, tetrahydropyrrolo[3,4-c]pyrazol-3-yl)-5-fluoro-N^2-methylpyrimidine-2,4-diamine] are within 1.5-fold of each other in Ki: 8.75 nM for the first, 10.8 nM for the second.

Compared with C[C@H]1CN(C)C(C)(C)CN1C(=O)N1Cc2c(Nc3nc(NCC4CC4)ncc3F)n[nH]c2C1(C)C [Example A3, N^2-(cyclopropylmethyl)-N^4-(6,6-dimethyl-5-{[(2S)-2,4,5,5-tetramethylpiperazin-1-yl]carbonyl}-1,4,5,6-tetrahydropyrrolo[3,4-c]pyrazol-3-yl)-5-fluoropyrimidine-2,4-diamine], C[C@H]1CN(C)C(C)(C)CN1C(=O)N1Cc2c(Nc3nc(NC4CC4)ncc3F)n[nH]c2C1(C)C [Example A5, N2-cyclopropyl-N4-(6,6-dimethyl-5-{[(2S)-2,4,5,5-tetramethylpiperazin-1-yl]carbonyl}-1,4,5,6-tetrahydropyrrolo[3,4-c]pyrazol-3-yl)-5-fluoropyrimidine-2,4-diamine] is 4.5-fold lower in Ki: 17.9 nM for the first, 3.95 nM for the second. The second binds more tightly here.

Going from CC(C)CNc1ncc(F)c(Nc2n[nH]c3c2CN(C(=O)N2CC(C)(C)N(C)C[C@@H]2C)C3(C)C)n1 [Example A4, N^4-(6,6-dimethyl-5-{[(2S)-2,4,5,5-tetramethylpiperazin-1-yl]carbonyl}-1,4,5,6-, tetrahydropyrrolo[3,4-c]pyrazol-3-yl)-5-fluoro-N^2-isobutylpyrimidine-2,4-diamine acetate salt] to CC(C)Nc1ncc(F)c(Nc2n[nH]c3c2CN(C(=O)N2CC(C)(C)N(C)C[C@@H]2C)C3(C)C)n1 [Example A7, N^4-(6,6-dimethyl-5-{[(2S)-2,4,5,5-tetramethylpiperazin-1-yl]carbonyl}-1,4,5,6-tetrahydropyrrolo[3,4-c]pyrazol-3-yl)-5-fluoro-N^2-isopropylpyrimidine-2,4-diamine], the Ki falls from 37.6 nM to 3.81 nM (9.9-fold). The second binds more tightly here.

Going from CCNc1nccc(Nc2n[nH]c3c2CN(C(=O)N2CC(C)(C)N(C)C[C@@H]2C)C3(C)C)n1 [Example A8, N^4-(6,6-dimethyl-5-{[(2S)-2,4,5,5-tetramethylpiperazin-1-yl]carbonyl}-1,4,5,6-tetrahydropyrrolo[3,4-c]pyrazol-3-yl)-N^2-ethylpyrimidine-2,4-diamine] to C[C@H]1CN(C)C(C)(C)CN1C(=O)N1Cc2c(Nc3ccnc(N(C)C)n3)n[nH]c2C1(C)C [Example A9, N^4-(6,6-dimethyl-5-{[(2S)-2,4,5,5-tetramethylpiperazin-1-yl]carbonyl}-1,4,5,6-tetrahydropyrrolo[3,4-c]pyrazol-3-yl)-N^2,N^2-dimethylpyrimidine-2,4-diamine], the Ki rises from 3.39 nM to 9.73 nM (2.9-fold).

Compared with Cc1ncc(F)c(Nc2n[nH]c3c2CN(C(=O)N2CC4(CCCC4)N(C)C[C@@H]2C)C3(C)C)n1 [Example A10, 5-{[(8S)-6,8-dimethyl-6,9-diazaspiro[4.5]dec-9-yl]carbonyl}-N-(5-fluoro-2-methylpyrimidin-4-yl)-6,6-dimethyl-1,4,5,6-tetrahydropyrrolo[3,4-c]pyrazol-3-amine], CCNc1ncc(F)c(Nc2n[nH]c3c2CN(C(=O)N2C[C@@H]4CCCN4C[C@@H]2C)C3(C)C)n1 [Example B2, N^4-(6,6-dimethyl-5-{[(3S,8aS)-3-methylhexahydropyrrolo[1,2-a]pyrazin-2(1H)-yl]carbonyl}-1,4,5,6-tetrahydropyrrolo[3,4-c]pyrazol-3-yl)-N^2-ethyl-5-fluoropyrimidine-2,4-diamine] is 24-fold higher in Ki: 1.01 nM for the first, 24.5 nM for the second.

CCNc1ncc(F)c(Nc2n[nH]c3c2CN(C(=O)N2C[C@@H](C)N(CC4CCOCC4)C[C@@H]2C)C3(C)C)n1 [Example A11, N^4-(5-{[(2S,5R)-2,5-dimethyl-4-(tetrahydro-2H-pyran-4-ylmethyl)piperazin-1-yl]carbonyl}-6,6-dimethyl-1,4,5,6-tetrahydropyrrolo[3,4-c]pyrazol-3-yl)-N^2-ethyl-5-fluoropyrimidine-2,4-diamine] and CCNc1ncc(F)c(Nc2n[nH]c3c2CN(C(=O)N2C[C@@H](C)N(C4CCOCC4)C[C@@H]2C)C3(C)C)n1 [Example A12, N^4-(5-{[(2S,5R)-2,5-dimethyl-4-(tetrahydro-2H-pyran-4-yl)piperazin-1-yl]carbonyl}-6,6-dimethyl-1,4,5,6-tetrahydropyrrolo[3,4-c]pyrazol-3-yl)-N^2-ethyl-5-fluoropyrimidine-2,4-diamine] cannot be ordered by Ki: less than 10 nM for the first, less than 10 nM for the second.

First: CCNc1ncc(F)c(Nc2n[nH]c3c2CN(C(=O)N2C[C@@H](C)N(CCCOC)C[C@@H]2C)C3(C)C)n1 [Example B1, N^2-ethyl-5-fluoro-N^4-(5-{[(2S,5R)-4-(3-methoxypropyl)-2,5-dimethylpiperazin-1-yl]carbonyl}-6,6-dimethyl-1,4,5,6-tetrahydropyrrolo[3,4-c]pyrazol-3-yl)pyrimidine-2,4-diamine acetate salt]
Second: CCNc1ncc(F)c(Nc2n[nH]c3c2CN(C(=O)N2C[C@@H](C)N(CCOC)C[C@@H]2C)C3(C)C)n1 [Example B4, N^2-ethyl-5-fluoro-N4-(5-{[(2S,5R)-4-(2-methoxyethyl)-2,5-dimethylpiperazin-1-yl]carbonyl}-6,6-dimethyl-1,4,5,6-tetrahydropyrrolo[3,4-c]pyrazol-3-yl)pyrimidine-2,4-diamine]
The Ki of the first is 2.7-fold lower: 5.09 nM for the first, 13.5 nM for the second.

Work on CCNc1ncc(F)c(Nc2n[nH]c3c2CN(C(=O)N2C[C@@H](C)N(C)C[C@@H]2C)C3(C)C)n1 [Example B3, N^4-(6,6-dimethyl-5-{[(2S,5R)-2,4,5-trimethylpiperazin-1-yl]carbonyl}-1,4,5,6-tetrahydropyrrolo[3,4-c]pyrazol-3-yl)-N^2-ethyl-5-fluoropyrimidine-2,4-diamine] yielded a Ki of 2.03 nM.
